Data set [1] deals with Zika virus. Description: Antiviral activity against ZIKV MR766 infected in Vero cells measured after 48 hrs by immunofluorescence analysis.
Data set [2] can be described thus: Cytotoxicity against African green monkey Vero cells infected with ZIKV MR766 incubated for 48 hrs by immunofluorescence analysis. The settings on record: chlorocebus sabaeus, Vero cells infected with ZIKV PRVABC59.
A further data set addresses Cytochrome P450 2D6 (Homo sapiens, UniProt P10635). The data set is described as follows: Inhibition of CYP2D6 in human liver microsomes using dextromethorphan as substrate preincubated for 5 mins followed by substrate and NADPH addition and measured after 20 mins by LC-MS/MS analysis. On the technique in general: Liver microsomes are vesicles of endoplasmic reticulum, rich in cytochrome P450 enzymes.

Data set [3] concerns Zika virus. The data set is described as follows: Antiviral activity against ZIKV infected in Vero E6 cells assessed as inhibition of viral replication. The settings on record: Vero C1008.
The nature of data set [4]: Cytotoxicity against African green monkey Vero E6 cells. The settings on record: chlorocebus sabaeus. The format is toxicity, cell-based, Vero C1008.
The nature of data set [5]: Selectivity index, ratio of CC50 for African green monkey Vero cells infected with ZIKV MR766 to EC50 for ZIKV MR766 infected in Vero cells.
The target in the next data set is hERG (Homo sapiens, UniProt Q12809). Description: Inhibition of hERG at 10 uM incubated for 2 hrs relative to control. A general note: The hERG channel carries a current that helps repolarise heart muscle cells.
Chain of hERG (Q12809 whole entry): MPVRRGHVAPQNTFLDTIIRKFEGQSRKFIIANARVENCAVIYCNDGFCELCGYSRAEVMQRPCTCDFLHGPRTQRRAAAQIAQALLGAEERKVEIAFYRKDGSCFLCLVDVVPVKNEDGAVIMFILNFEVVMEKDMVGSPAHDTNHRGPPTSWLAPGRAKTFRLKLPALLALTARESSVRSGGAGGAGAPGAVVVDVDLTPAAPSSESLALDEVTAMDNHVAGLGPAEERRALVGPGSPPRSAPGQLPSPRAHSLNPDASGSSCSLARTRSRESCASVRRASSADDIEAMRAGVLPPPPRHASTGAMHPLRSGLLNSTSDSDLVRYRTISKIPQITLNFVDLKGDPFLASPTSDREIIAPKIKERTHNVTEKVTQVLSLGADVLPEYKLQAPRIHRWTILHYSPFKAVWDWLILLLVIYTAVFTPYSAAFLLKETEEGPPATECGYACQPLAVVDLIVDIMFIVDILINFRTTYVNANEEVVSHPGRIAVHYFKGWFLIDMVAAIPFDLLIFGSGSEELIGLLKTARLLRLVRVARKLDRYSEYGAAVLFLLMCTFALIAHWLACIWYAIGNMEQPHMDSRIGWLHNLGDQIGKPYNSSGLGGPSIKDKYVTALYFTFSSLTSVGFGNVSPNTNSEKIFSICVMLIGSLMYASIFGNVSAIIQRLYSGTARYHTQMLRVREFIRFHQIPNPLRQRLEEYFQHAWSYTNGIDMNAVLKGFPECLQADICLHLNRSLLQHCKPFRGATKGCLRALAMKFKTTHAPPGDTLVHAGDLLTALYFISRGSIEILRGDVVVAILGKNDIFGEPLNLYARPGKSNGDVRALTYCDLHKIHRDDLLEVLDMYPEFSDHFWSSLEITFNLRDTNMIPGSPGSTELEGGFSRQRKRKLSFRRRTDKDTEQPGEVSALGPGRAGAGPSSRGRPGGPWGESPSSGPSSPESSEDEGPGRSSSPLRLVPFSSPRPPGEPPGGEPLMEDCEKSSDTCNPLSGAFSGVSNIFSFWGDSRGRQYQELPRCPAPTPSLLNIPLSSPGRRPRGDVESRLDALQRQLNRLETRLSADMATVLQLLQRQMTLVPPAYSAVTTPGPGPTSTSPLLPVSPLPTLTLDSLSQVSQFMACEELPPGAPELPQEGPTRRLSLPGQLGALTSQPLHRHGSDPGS
Data set [6] can be described thus: Stability in mouse liver microsomes assessed as compound remaining at 1 uM incubated for 30 mins by LC-MS/MS analysis.
A short description of data set [7]: Stability in rat liver microsomes assessed as compound remaining at 1 uM incubated for 30 mins by LC-MS/MS analysis.
Data set [8] can be described thus: Stability in human liver microsomes assessed as compound remaining at 1 uM incubated for 30 mins by LC-MS/MS analysis.
Data set [9] can be described thus: Plasma protein binding in mouse at 5 uM incubated for 4 hrs under shaking condition by LC-MS/MS analysis.
A short description of data set [10]: Plasma protein binding in human at 5 uM incubated for 4 hrs under shaking condition by LC-MS/MS analysis.
For data set [11], the system named is Zika virus. Description: Antiviral activity against ZIKV BR infected in cervical cells. The settings on record: Cervical cell.

SMILES strings stand for the structures. A value given as a limit tells only on which side of the number the result lay.

Chain of Cytochrome P450 2D6 (P10635 whole entry): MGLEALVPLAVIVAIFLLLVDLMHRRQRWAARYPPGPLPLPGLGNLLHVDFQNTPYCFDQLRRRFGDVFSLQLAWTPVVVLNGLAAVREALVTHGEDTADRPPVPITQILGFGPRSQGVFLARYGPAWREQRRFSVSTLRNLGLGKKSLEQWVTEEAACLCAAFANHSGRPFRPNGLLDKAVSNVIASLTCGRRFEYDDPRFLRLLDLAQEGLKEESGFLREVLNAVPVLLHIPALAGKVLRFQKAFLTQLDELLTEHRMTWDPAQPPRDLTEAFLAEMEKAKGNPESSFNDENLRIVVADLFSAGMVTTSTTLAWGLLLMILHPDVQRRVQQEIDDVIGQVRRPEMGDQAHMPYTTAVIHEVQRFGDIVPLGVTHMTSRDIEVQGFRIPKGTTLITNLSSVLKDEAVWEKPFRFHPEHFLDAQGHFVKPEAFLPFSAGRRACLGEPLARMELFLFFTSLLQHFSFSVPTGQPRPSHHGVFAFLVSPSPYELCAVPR

With `c1ccc(-c2nnc(-c3ccc(NCc4cccnc4)cc3)o2)cc1`, in the data set on Zika virus [1], the EC50 (commonly the concentration at which the effect is half-maximal) is above 100 µM. For the same molecule, in data set [2], the CC50 (usually the concentration that lowers cell viability or growth by half) at 48 h is above 100 µM.

In data set [2], `c1cncc(CNc2ccc(-c3cc(-c4cncnc4)on3)cc2)c1` came in with a 50% cytotoxic concentration (CC50) at 48 h above 100 µM. Also, inhibition on Cytochrome P450 2D6 was half-maximal at 3.5 µM (IC50).

`CCn1c2ccccc2c2cc(NC(=O)Nc3ccc(N)cc3C)ccc21`: the EC50 in the data set with Zika virus [3] was 1.67 µM. Moreover, in data set [4], the CC50 is above 12.5 µM.

In the data set with Zika virus [1], `c1ccc(-c2noc(-c3ccc(NCc4cccnc4)cc3)n2)cc1` gave an EC50 of 5.3 µM. The molecule also yielded a CC50 at 48 h in data set [2] of 61.4 µM. The selectivity ratio in data set [5] is 11.6.

As to `c1ccc(-c2cnc(-c3ccc(NCc4cccnc4)cc3)o2)cc1`, the EC50 with Zika virus [1] is 5.1 µM. Moreover, it took 12.9 µM to reach half-maximal cytotoxicity in [2] (CC50 at 48 h). Further, the selectivity ratio in [5] was 2.5.

In the case of `FC(F)(F)c1ccc(-c2cc(-c3ccc(NCc4cccnc4)cc3)no2)cc1`, the CC50 at 48 h in [2] was above 100 µM. Besides, the IC50 (commonly the concentration that gives 50% inhibition) against Cytochrome P450 2D6 is above 99 µM. Also, the inhibition – broadly, how much of the control response was suppressed – at 2 h, 10 µM at hERG came out at 5.37%. In addition, the share remaining (as a rule, what is left of the initial amount, in per cent) at 0.5 h, 1 µM in data set [6] came to 79.6%; in [7], 51.7%; in data set [8] it was 71.5%. Further, the fraction unbound (as a rule, free concentration divided by total concentration) at 4 h, 5 µM in [9] is 0.003; in data set [10] it was 0.0047.

With `O=S(=O)(NCCCCNc1ccnc2cc(Cl)ccc12)c1ccc(Cl)cc1`, in the data set on Zika virus [11], the EC50 was found to be 3.2 µM.

With `FC(F)(F)c1cc(-c2cc(-c3ccc(NCc4cccnc4)cc3)no2)ccn1`, in data set [2], the CC50 at 48 h was above 100 µM.

Turning to `Fc1ccc(-c2cc(-c3ccc(NCc4cccnc4)cc3)no2)cc1`, in data set [2], the half-maximal cytotoxic concentration (CC50) at 48 h was above 100 µM.

As to `Cn1cc(-c2ccc(NCc3cccnc3)cc2)nc1-c1ccccc1`, in the data set on Zika virus [1], the 50% effective concentration (EC50) is above 100 µM. In data set [2], the CC50 at 48 h is above 100 µM.

For `COc1ccccc1-c1cc(-c2ccc(NCc3cccnc3)cc2)no1`, the CC50 at 48 h in data set [2] is above 100 µM. For the same molecule, the IC50 against Cytochrome P450 2D6 came out at 27.1 µM.

In the data set on Zika virus [1], `Fc1cccc(-c2cc(-c3ccc(NCc4cccnc4)cc3)no2)c1` had an EC50 of 3.3 µM.

As for `N#Cc1ccc(-c2cc(-c3ccc(NCc4cccnc4)cc3)no2)cc1`, the CC50 at 48 h in data set [2] is above 100 µM. At Cytochrome P450 2D6, this molecule showed an IC50 above 99 µM.

The molecule `c1ccc(-c2nc(-c3ccc(NCc4cccnc4)cc3)c[nH]2)cc1` came in with an EC50 with Zika virus [1] of 36.8 µM. This molecule gave a CC50 at 48 h in data set [2] of 94.1 µM. Besides, the selectivity ratio in data set [5] stood at 2.6.

Molecule `FC(F)(F)Oc1ccccc1-c1cc(-c2ccc(NCc3cccnc3)cc2)no1` gave an EC50 in the data set with Zika virus [1] of 44.5 µM.

`FC(F)(F)Oc1ccc(-c2cc(-c3ccc(NCc4cccnc4)cc3)no2)nc1` gave a CC50 at 48 h in [2] above 100 µM.

The values above are taken from ChEMBL document CHEMBL5576159, “Discovery and structure-activity relationship study of novel isoxazole-based small molecules targeting Zika virus infections” (RSC Med Chem, 2024).
